Results taken from US20230049231A1 (priority 2019, published 2023).

How the values were obtained:
hERG channel = biological target: T1, hERG channel (Homo sapiens, UniProt Q12809); test: hERG electrophysiology, automated whole-cell patch clamp (Patchliner); assay type: cell-based; conditions: hERG channel, whole-cell patch clamp
T1 construct: expressed in transfected cells
Outline: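 Currents were recorded at 0.3 Hz from −80 mV, stepping to +20 mV then −50 mV (300 ms each), in stably transfected CHO-K1 cells. Concentrations (30 nM–100 μM, up to 0.3% DMSO) were added sequentially without washout. IC50 came from Hill fits of control-normalized AUC/peak of each train's final pulse.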

Kv1.3 potassium channel = biological target: T2, Kv1.3 potassium channel (Homo sapiens, UniProt P22001); test: Kv1.3 potassium channel blocker activity, automated whole-cell patch clamp (Patchliner); assay type: cell-based; conditions: Kv1.3 potassium channel, whole-cell patch clamp
T2 construct: expressed in transfected cells
T2 sequence (P22001 whole entry): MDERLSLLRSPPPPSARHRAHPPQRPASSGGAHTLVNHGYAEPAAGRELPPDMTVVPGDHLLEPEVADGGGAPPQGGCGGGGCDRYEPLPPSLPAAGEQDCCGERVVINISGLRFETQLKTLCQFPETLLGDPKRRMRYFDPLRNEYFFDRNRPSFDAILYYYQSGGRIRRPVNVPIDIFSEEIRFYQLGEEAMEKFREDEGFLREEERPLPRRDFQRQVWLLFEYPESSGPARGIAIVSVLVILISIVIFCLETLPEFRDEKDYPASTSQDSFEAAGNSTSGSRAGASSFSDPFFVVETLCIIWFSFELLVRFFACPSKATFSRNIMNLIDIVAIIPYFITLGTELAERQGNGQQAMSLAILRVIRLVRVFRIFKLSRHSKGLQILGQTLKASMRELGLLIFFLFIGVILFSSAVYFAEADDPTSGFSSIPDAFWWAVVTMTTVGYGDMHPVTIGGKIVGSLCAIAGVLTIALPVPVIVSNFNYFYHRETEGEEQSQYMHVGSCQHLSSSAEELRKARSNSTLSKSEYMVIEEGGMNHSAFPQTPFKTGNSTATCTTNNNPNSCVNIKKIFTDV
Outline: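 IC50 came from Hill-equation fits of peak and AUC currents from the final pulse at each concentration, normalized to compound-free control. Compounds applied consecutively at 30 nM to 100 μM (up to 0.3% DMSO) to Kv1.3-expressing CHO-K1 cells, P/4 leak subtraction. Pulses were +40 mV, 100 ms, from −90 mV holding, at 0.1 Hz on Patchliner.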

T1 sequence (Q12809 whole entry): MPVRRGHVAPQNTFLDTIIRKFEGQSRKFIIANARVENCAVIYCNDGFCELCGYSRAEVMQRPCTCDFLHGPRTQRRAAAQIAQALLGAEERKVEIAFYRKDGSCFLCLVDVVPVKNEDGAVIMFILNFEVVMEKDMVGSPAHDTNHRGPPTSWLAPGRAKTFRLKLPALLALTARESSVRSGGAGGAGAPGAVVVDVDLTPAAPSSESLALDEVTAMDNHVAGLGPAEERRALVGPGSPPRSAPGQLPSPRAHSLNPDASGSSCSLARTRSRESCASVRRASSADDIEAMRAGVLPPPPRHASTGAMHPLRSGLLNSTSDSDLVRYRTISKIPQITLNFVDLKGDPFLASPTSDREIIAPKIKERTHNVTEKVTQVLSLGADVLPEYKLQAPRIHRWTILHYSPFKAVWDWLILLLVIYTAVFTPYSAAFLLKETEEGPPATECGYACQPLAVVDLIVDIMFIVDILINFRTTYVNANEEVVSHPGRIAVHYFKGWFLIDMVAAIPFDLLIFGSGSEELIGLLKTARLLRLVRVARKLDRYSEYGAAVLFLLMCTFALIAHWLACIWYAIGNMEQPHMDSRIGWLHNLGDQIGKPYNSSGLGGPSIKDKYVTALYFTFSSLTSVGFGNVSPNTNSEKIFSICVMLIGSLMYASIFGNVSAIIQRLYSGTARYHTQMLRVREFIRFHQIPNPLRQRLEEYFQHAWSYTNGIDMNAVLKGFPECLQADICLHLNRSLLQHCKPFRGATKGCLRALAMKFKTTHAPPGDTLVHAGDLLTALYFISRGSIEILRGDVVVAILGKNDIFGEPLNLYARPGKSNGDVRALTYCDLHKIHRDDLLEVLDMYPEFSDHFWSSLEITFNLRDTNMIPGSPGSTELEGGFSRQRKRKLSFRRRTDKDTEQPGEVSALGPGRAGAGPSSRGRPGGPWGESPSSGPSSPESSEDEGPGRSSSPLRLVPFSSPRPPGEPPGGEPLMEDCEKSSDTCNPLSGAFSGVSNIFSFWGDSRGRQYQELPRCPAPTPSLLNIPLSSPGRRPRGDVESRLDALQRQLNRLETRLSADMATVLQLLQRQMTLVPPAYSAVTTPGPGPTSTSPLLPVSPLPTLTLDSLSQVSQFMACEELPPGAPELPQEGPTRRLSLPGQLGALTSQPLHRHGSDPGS

Row | IC50 (Kv1.3 potassium channel) | Structure (SMILES) | IC50 (hERG channel)
1 | < 1 µM | O=C1CN(CC2CNC2)C[C@@H]2C[C@H](c3c(O)ccc(Cl)c3Cl)CN12 [Compound 128, (7R,8aS)-2-(azetidin-3-ylmethyl)-7-(2,3-dichloro-6-hydroxyphenyl)-hexahydropyrrolo [1,2-a]pyrazin-4-one] | > 30 µM
2 | < 1 µM | O=C1CN(C2CNC2)C[C@@H]2C[C@H](c3c(O)ccc(Cl)c3Cl)CN12 [Compound 129, (7R,8aS)-2-(azetidin-3-yl)-7-(2,3-dichloro-6-hydroxyphenyl)-hexahydropyrrolo [1,2-a]pyrazin-4-one] | > 30 µM
3 | < 1 µM | O=C(CO)N1CC(N2CC(=O)N3C[C@@H](c4c(O)ccc(Cl)c4Cl)C[C@H]3C2)C1 [Compound 133, (7R,8aS)-7-(2,3-dichloro-6-hydroxyphenyl)-2-[1-(2-hydroxyacetyl)azetidin-3-yl]-hexahydropyrrolo [1,2-a]pyrazin-4-one] | > 30 µM
4 | < 1 µM | O=C1CN(C2CCNCC2)C[C@@H]2C[C@H](c3c(O)ccc(Cl)c3Cl)CN12 [Compound 141, (7R,8aS)-7-(2,3-dichloro-6-hydroxyphenyl)-2-(piperidin-4-yl)-hexahydropyrrolo [1,2-a]pyrazin-4-one] | > 30 µM
5 | < 1 µM | O=C1CN([C@H]2CCNC2)C[C@@H]2C[C@H](c3c(O)ccc(Cl)c3Cl)CN12 [Compound 142, (7R,8aS)-7-(2,3-dichloro-6-hydroxyphenyl)-2-[(3S)-pyrrolidin-3-yl]-hexahydropyrrolo [1,2-a]pyrazin-4-one] | > 30 µM
6 | < 1 µM | O=C1CN([C@@H]2CCNC2)C[C@@H]2C[C@H](c3c(O)ccc(Cl)c3Cl)CN12 [Compound 143, (7R,8aS)-7-(2,3-dichloro-6-hydroxyphenyl)-2-[(3R)-pyrrolidin-3-yl]-hexahydropyrrolo [1,2-a]pyrazin-4-one] | > 30 µM
7 | < 1 µM | O=C1CN(C[C@H]2CNCCO2)C[C@@H]2C[C@H](c3c(O)ccc(Cl)c3Cl)CN12 [Compound 147, (7R,8aS)-7-(2,3-dichloro-6-hydroxyphenyl)-2-[(2R)-morpholin-2-ylmethyl]-hexahydropyrrolo [1,2-a]pyrazin-4-one] | > 30 µM
8 | < 1 µM | CC(C)(O)CN1CC(=O)N2C[C@@H](c3c(O)ccc(Cl)c3Cl)C[C@H]2C1 [Compound 148, (7R,8aS)-7-(2,3-dichloro-6-hydroxyphenyl)-2-(2-hydroxy-2-methylpropyl)-hexahydropyrrolo[1,2-a]pyrazin-4-one] | > 30 µM
9 | < 1 µM | O=C1CN(C2COCC2O)C[C@@H]2C[C@H](c3c(O)ccc(Cl)c3Cl)CN12 (stereo partly drawn) [Compound 149, (7R,8aS)-7-(2,3-dichloro-6-hydroxyphenyl)-2-(4-hydroxyoxolan-3-yl)-hexahydropyrrolo[1,2-a]pyrazin-4-one] | > 30 µM
10 | < 1 µM | O=C1CN(CC2(O)CNC2)C[C@@H]2C[C@H](c3c(O)ccc(Cl)c3Cl)CN12 [Compound 157, (7R,8aS)-7-(2,3-dichloro-6-hydroxyphenyl)-2-[(3-hydroxyazetidin-3-yl)methyl]-hexahydropyrrolo[1,2-a]pyrazin-4-one;] | > 30 µM
11 | < 1 µM | O=C1CN(c2ccnc(CO)n2)C[C@@H]2C[C@H](c3c(O)ccc(Cl)c3Cl)CN12 [Compound 169, (7R,8aS)-7-(2,3-dichloro-6-hydroxyphenyl)-2-[2-(hydroxymethyl)pyrimidin-4-yl]-hexahydropyrrolo[1,2-a]pyrazin-4-one] | > 30 µM
12 | < 1 µM | O=C1CN(c2cnc(CO)cn2)C[C@@H]2C[C@H](c3c(O)ccc(Cl)c3Cl)CN12 [Compound 172] | < 30 µM
13 | < 1 µM | O=C1CN(c2cc(CO)ccn2)C[C@@H]2C[C@H](c3c(O)ccc(Cl)c3Cl)CN12 [Compound 173] | < 30 µM
14 | < 1 µM | NCC1OC[C@@H]2C[C@H](c3c(O)ccc(Cl)c3Cl)CCN2C1=O (stereo partly drawn) [Compound 180, (8R,9aS)-3-(aminomethyl)-8-(2,3-dichloro-6-hydroxyphenyl)-hexahydro-1H-pyrido[2,1-c][1,4]oxazin-4-one] | < 30 µM
15 | < 1 µM | O=C1C(CN2CCCC2)OC[C@@H]2C[C@H](c3c(O)ccc(Cl)c3Cl)CCN12 (stereo partly drawn) [Compound 181, (8R,9aS)-8-(2,3-dichloro-6-hydroxyphenyl)-3-(pyrrolidin-1-ylmethyl)-hexahydro-1H-pyrido[2,1-c][1,4]oxazin-4-one] | < 10 µM
16 | < 1 µM | O=C1C(CN2CC(O)C2)OC[C@@H]2C[C@H](c3c(O)ccc(Cl)c3Cl)CCN12 (stereo partly drawn) [Compound 183, (8R,9aS)-8-(2,3-dichloro-6-hydroxyphenyl)-3-[(3-hydroxyazetidin-1-yl)methyl]-hexahydro-1H-pyrido[2,1-c][1,4]oxazin-4-one] | < 30 µM
17 | < 1 µM | O=C(CO)NCC1OC[C@@H]2C[C@H](c3c(O)ccc(Cl)c3Cl)CCN2C1=O (stereo partly drawn) [Compound 185, N-[[(8R,9aS)-8-(2,3-dichloro-6-hydroxyphenyl)-4-oxo-hexahydro-1H-pyrido[2,1-c][1,4]oxazin-3-yl]methyl]-2-hydroxyacetamide] | > 30 µM

Continued, compound first:

Row | Structure (SMILES) | IC50 (Kv1.3 potassium channel) | IC50 (hERG channel)
18 | O=C1CN(C(CO)CO)C[C@@H]2C[C@H](c3c(O)ccc(Cl)c3Cl)CN12 [Compound 124, (7R,8aS)-7-(2,3-dichloro-6-hydroxyphenyl)-2-(1,3-dihydroxypropan-2-yl)-hexahydropyrrolo [1,2-a]pyrazin-4-one] | < 1 µM | > 30 µM
19 | CC(CO)N1CC(=O)N2C[C@@H](c3c(O)ccc(Cl)c3Cl)C[C@H]2C1 (stereo partly drawn) [Compound 127, (7R,8aS)-7-(2,3-dichloro-6-hydroxyphenyl)-2-(1-hydroxypropan-2-yl)-hexahydropyrrolo [1,2-a]pyrazin-4-one] | < 1 µM | > 30 µM
20 | CN1CC(N2CC(=O)N3C[C@@H](c4c(O)ccc(Cl)c4Cl)C[C@H]3C2)C1 [Compound 132, (7R,8aS)-7-(2,3-dichloro-6-hydroxyphenyl)-2-(1-methylazetidin-3-yl)-hexahydropyrrolo [1,2-a]pyrazin-4-one] | < 1 µM | < 30 µM
21 | O=C1CN(C2CN(CCO)C2)C[C@@H]2C[C@H](c3c(O)ccc(Cl)c3Cl)CN12 [Compound 134, (7R,8aS)-7-(2,3-dichloro-6-hydroxyphenyl)-2-[1-(2-hydroxyethyl)azetidin-3-yl]-hexahydropyrrolo [1,2-a]pyrazin-4-one] | < 1 µM | > 30 µM
22 | O=C1CN(C[C@@H]2COCCN2)C[C@@H]2C[C@H](c3c(O)ccc(Cl)c3Cl)CN12 [Compound 144, (7R,8aS)-7-(2,3-dichloro-6-hydroxyphenyl)-2-[(3R)-morpholin-3-ylmethyl]-hexahydropyrrolo [1,2-a]pyrazin-4-one] | < 1 µM | > 30 µM
23 | O=C1CN(C[C@H]2COCCN2)C[C@@H]2C[C@H](c3c(O)ccc(Cl)c3Cl)CN12 [Compound 145, (7R,8aS)-7-(2,3-dichloro-6-hydroxyphenyl)-2-[(3S)-morpholin-3-ylmethyl]-hexahydropyrrolo [1,2-a]pyrazin-4-one] | < 1 µM | < 30 µM
24 | O=C1CN(C[C@@H]2CNCCO2)C[C@@H]2C[C@H](c3c(O)ccc(Cl)c3Cl)CN12 [Compound 146, (7R,8aS)-7-(2,3-dichloro-6-hydroxyphenyl)-2-[(2S)-morpholin-2-ylmethyl]-hexahydropyrrolo [1,2-a]pyrazin-4-one] | < 1 µM | > 30 µM
25 | COC(CO)CN1CC(=O)N2C[C@@H](c3c(O)ccc(Cl)c3Cl)C[C@H]2C1 (stereo partly drawn) [Compound 156, (7R,8aS)-7-(2,3-dichloro-6-hydroxyphenyl)-2-(3-hydroxy-2-methoxypropyl) hexahydropyrrolo[1,2-a]pyrazin-4-one] | < 1 µM | > 30 µM
26 | CC(CO)(CO)N1CC(=O)N2C[C@@H](c3c(O)ccc(Cl)c3Cl)C[C@H]2C1 [Compound 162, (7R,8aS)-7-(2,3-dichloro-6-hydroxyphenyl)-2-(1,3-dihydroxy-2-methylpropan-2-yl)-hexahydropyrrolo[1,2-a]pyrazin-4-one] | < 1 µM | > 30 µM
27 | CC1(CN2CC(=O)N3C[C@@H](c4c(O)ccc(Cl)c4Cl)C[C@H]3C2)CNC1 [Compound 167, (7R,8aS)-7-(2,3-dichloro-6-hydroxyphenyl)-2-[(3-methylazetidin-3-yl)methyl]-hexahydropyrrolo[1,2-a]pyrazin-4-one] | < 1 µM | > 30 µM
28 | Nc1ccnc(N2CC(=O)N3C[C@@H](c4c(O)ccc(Cl)c4Cl)C[C@H]3C2)c1 [Compound 171, (7R,8aS)-2-(4-aminopyridin-2-yl)-7-(2,3-dichloro-6-hydroxyphenyl)-hexahydropyrrolo[1,2-a]pyrazin-4-one] | < 1 µM | < 10 µM
29 | O=C1CN(c2ncn[nH]2)C[C@@H]2C[C@H](c3c(O)ccc(Cl)c3Cl)CN12 [Compound 175, (7R,8aS)-7-(2,3-dichloro-6-hydroxyphenyl)-2-(1H-1,2,4-triazol-5-yl)hexahydropyrrolo[1,2-a]pyrazin-4(1H)-one] | < 1 µM | > 30 µM
30 | O=C1CN(c2ncc[nH]2)C[C@@H]2C[C@H](c3c(O)ccc(Cl)c3Cl)CN12 [Compound 176, (7R,8aS)-7-(2,3-dichloro-6-hydroxyphenyl)-2-(1H-imidazol-2-yl)-hexahydropyrrolo[1,2-a]pyrazin-4-one] | < 1 µM | < 30 µM
31 | CNCC1OC[C@@H]2C[C@H](c3c(O)ccc(Cl)c3Cl)CCN2C1=O (stereo partly drawn) [Compound 182, (8R,9aS)-8-(2,3-dichloro-6-hydroxyphenyl)-3-[(methylamino)methyl]-hexahydro-1H-pyrido[2,1-c][1,4]oxazin-4-one] | < 1 µM | < 30 µM
